Measured values as given in patent publication US20150105252A1, “SUBSTITUTED PYRAZOLES AS HERBICIDES” (E I DU PONT DE NEMOURS AND COMPANY, priority 2013, published 2015).

Tests used:
[1] = tested on: barnyardgrass; assay: Test A preemergence; assay type: in vivo, Echinochloa crus-galli
Outline: (§1)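 Seeds were sown in a loam soil–sand blend and given a directed soil spray preemergence; postemergence plants at 2–10 cm, one- to two-leaf stage, were sprayed with compound in non-phytotoxic solvent with surfactant. After about 10 days in a greenhouse, injury was visually rated against untreated controls (0 = no effect, 100 = complete control).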

[2] = tested on: pigweed; assay: Test A preemergence; assay type: in vivo, Amaranthus retroflexus; conditions: for Pigweed plant response rating: 0 to 100 scale
Outline: as §1

[3] = tested on: velvetleaf; assay: Test A preemergence; assay type: in vivo, Abutilon theophrasti; conditions: for Velvetleaf plant response rating: 0 to 100 scale
Outline: as §1

[4] = tested on: pigweed; assay: Test A postemergence; assay type: in vivo, Amaranthus retroflexus
Outline: as §1

[5] = tested on: velvetleaf; assay: Test A postemergence; assay type: in vivo, Abutilon theophrasti
Outline: as §1

[6] = tested on: foxtail, giant; assay: Test C preemergence; assay type: in vivo, Setaria faberii
Outline: (§2)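 Pre- and postemergence greenhouse screen; vehicle was a non-phytotoxic solvent mix with surfactant. Preemergence: treatment applied right after sowing into loam and sand. Postemergence: treated at 1–4 leaves. Visual rating at 13–15 days, 100 = complete control.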

[7] = tested on: johnsongrass; assay: Test C preemergence; assay type: in vivo, Sorghum halepense
Outline: as §2

[8] = tested on: ragweed; assay: Test C preemergence; assay type: in vivo, Ambrosia elation
Outline: as §2

[9] = tested on: soybean; assay: Test C preemergence; assay type: in vivo, Glycine max
Outline: as §2

[10] = tested on: corn; assay: Test C postemergence; assay type: in vivo, Zea mays
Outline: as §2

[11] = tested on: johnsongrass; assay: Test C postemergence; assay type: in vivo, Sorghum halepense
Outline: as §2

[12] = tested on: lambsquarters; assay: Test C postemergence; assay type: in vivo, Chenopodium album
Outline: as §2

[13] = tested on: waterhemp; assay: Test C postemergence; assay type: in vivo, Amaranthus rudis
From the text: Seeds of plant species selected from blackgrass (Alopecurus myosuroides), ryegrass, Italian (Italian ryegrass, Lolium multiflorum), wheat (winter wheat, Triticum aestivum), galium (catchweed bedstraw, Galium aparine), corn (Zea mays), crabgrass, large (large crabgrass, Digitaria sanguinalis), foxtail, giant (giant foxtail, Setaria faberii), johnsongrass (Sorghum halepense), lambsquarters (Chenopodium album), morningglory (Ipomoea coccinea), nutsedge, yellow (yellow nutsedge, Cyperus esculentus), pigweed (redroot pigweed, Amaranthus retroflexus), ragweed (common ragweed, Ambrosia elation), soybean (Glycine max), barnyardgrass (Echinochloa crus-galli), oilseed rape (Brassica napus), waterhemp (common waterhemp, Amaranthus rudis), oat, wild (wild oat, Avena fatua), kochia (Kochia scoparia), Surinam grass (Brachiaria decumbens), foxtail, green (green foxtail, Setaria viridis), goosegrass (Eleusine indica), bromegrass, downy (downy bromegrass, Bromus tectorum), nightshade (eastern black nightshade, Solanum ptycanthum), cocklebur (common cocklebur, Xanthium strumarium), cupgrass, woolly (woolly cupgrass, Eriochloa villosa), bermudagrass (Cynodon dactylon), sunflower, (common oilseed sunflower, Helianthus annuus), Russian thistle (Salsola kali), and velvetleaf (Abutilon theophrasti) were planted into a blend of loam soil and sand and treated preemergence with test chemicals formulated in a non-phytotoxic solvent mixture which included a surfactant.
At the same time, plants selected from these crop and weed species and also chickweed (common chickweed, Stellaria media), canarygrass (littleseed canarygrass, Phalaris minor), and deadnettle (henbit deadnettle, Lamium amplexicaule), were planted in pots containing Redi-Earth® planting medium (Scotts Company, 14111 Scottslawn Road, Marysville, Ohio 43041) comprising spaghnum peat moss, vermiculite, wetting agent and starter nutrients and treated with postemergence applications of test chemicals formulated in the same manner. Plants ranged in height from 2 to 18 cm (1- to 4-leaf stage) for postemergence treatments. Treated plants and controls were maintained in a greenhouse for 13 to 15 days, after which time all species were compared to controls and visually evaluated. Plant response ratings, summarized in Table C, are based on a scale of 0 to 100 where 0 is no effect and 100 is complete control. A dash (-) response means no test result.

[14] = tested on: blackgrass; assay: Test C preemergence; assay type: in vivo, Alopecurus myosuroides; conditions: preemergence
Outline: as §2

[15] = tested on: wheat; assay: Test C preemergence; assay type: in vivo, Triticum aestivum; conditions: preemergence
Outline: as §2

[16] = tested on: oilseed rape; assay: Test C preemergence; assay type: in vivo, Brassica napus; conditions: preemergence
Outline: as §2

[17] = Preemergence, 500 g ai/ha, 0 no effect, 100 complete control
[18] = preemergence, 125 g ai/ha, visual injury, approx. 10 days
[19] = Postemergence, 500 g ai/ha, visual rating after approx. 10 days, 0 to 100 scale (0 no effect, 100 complete control)
[20] = postemergence, 125 g ai/ha, about 10 days, visual rating on 0 to 100 scale (0 no effect, 100 complete control)
[21] = Preemergence, 16 g ai/ha, scale 0 to 100
[22] = preemergence, 31 g ai/ha, scale 0 to 100 (0 no effect, 100 complete control), 13 to 15 days
[23] = preemergence, 62 g ai/ha, 13 to 15 days, scale 0 to 100, 0 = no effect, 100 = complete control
[24] = preemergence, 125 g ai/ha, scale 0 to 100, 0 is no effect, 100 is complete control
[25] = Postemergence, 31 g ai/ha, visually evaluated after 13 to 15 days
[26] = postemergence, 62 g ai/ha, scale 0 to 100
[27] = postemergence, 125 g ai/ha, scale 0 to 100, 0 no effect, 100 complete control
[28] = preemergence, 125 g ai/ha, visual injury approx. 10 days after treatment
[29] = Postemergence, 125 g ai/ha, 0 to 100 scale, 0 no effect, 100 complete control
[30] = Postemergence, 500 g ai/ha, 0 to 100 scale (0 no effect, 100 complete control)
[31] = 31 g ai/ha, visual rating, scale 0 to 100 (0 no effect, 100 complete control), 13 to 15 days
[32] = 62 g ai/ha, scale 0 to 100 (0 no effect, 100 complete control), 13 to 15 days
[33] = 125 g ai/ha, 13 to 15 days, scale 0 to 100, 0 = no effect, 100 = complete control
[34] = 250 g ai/ha, scale 0 to 100, 0 is no effect, 100 is complete control
[35] = preemergence, 31 g ai/ha, visual rating, scale 0 to 100 (0 no effect, 100 complete control), 13 to 15 days
[36] = preemergence, 62 g ai/ha, scale 0 to 100 (0 no effect, 100 complete control), 13 to 15 days
[37] = preemergence, 125 g ai/ha, 13 to 15 days, scale 0 to 100, 0 = no effect, 100 = complete control
[38] = preemergence, 250 g ai/ha, scale 0 to 100, 0 is no effect, 100 is complete control

SMILES: CCONC(=O)c1cc(CC)n(Cc2ccnc(C(F)(F)F)c2)n1 [Compound 77]
- Barnyardgrass plant response rating ([1]; Preemergence, 500 g ai/ha, 0 to 100 scale, 0 no effect, 100 complete control): 100
- Barnyardgrass plant response rating ([1]; preemergence, 125 g ai/ha, visual injury, 0 to 100 scale, approx. 10 days): 90
- Pigweed plant response rating [2, 17]: 100
- Pigweed plant response rating [2, 18]: 100
- Velvetleaf plant response rating [3, 17]: 80
- Velvetleaf plant response rating [3, 18]: 20
- Pigweed plant response rating [4, 19]: 100
- Pigweed plant response rating [4, 20]: 100
- Velvetleaf plant response rating [5, 19]: 100
- Velvetleaf plant response rating [5, 20]: 80
- Plant response rating, Foxtail, Giant [6, 21]: 20
- Foxtail, Giant plant response rating [6, 22]: 80
- Plant response rating, Foxtail, Giant [6, 23]: 85
- Foxtail, Giant plant response rating [6, 24]: 100
- Plant response rating, Johnsongrass [7, 21]: 10
- Johnsongrass plant response rating [7, 22]: 45
- Johnsongrass plant response rating [7, 24]: 70
- Plant response rating, Ragweed [8, 21]: 10
- Ragweed plant response rating [8, 22]: 35
- Plant response rating, Ragweed [8, 23]: 70
- Ragweed plant response rating [8, 24]: 85
- Plant response rating, Soybean [9, 21]: 0
- Soybean plant response rating [9, 22]: 10
- Plant response rating, Soybean [9, 23]: 20
- Soybean plant response rating [9, 24]: 50
- Plant response rating (scale of 0 to 100), Corn ([10]; Postemergence, 16 g ai/ha): 0
- Plant response rating (scale of 0 to 100 where 0 is no effect and 100 is complete control), Corn [10, 25]: 0
- Corn plant response rating [10, 26]: 5
- Plant response rating, Corn [10, 27]: 10
- Plant response rating (scale of 0 to 100), Johnsongrass ([11]; Postemergence, 16 g ai/ha): 5
- Plant response rating (scale of 0 to 100 where 0 is no effect and 100 is complete control), Johnsongrass [11, 25]: 5
- Johnsongrass plant response rating [11, 26]: 5
- Plant response rating, Johnsongrass [11, 27]: 5
- Plant response rating (scale of 0 to 100), Lambsquarters ([12]; Postemergence, 16 g ai/ha): 15
- Plant response rating (scale of 0 to 100 where 0 is no effect and 100 is complete control), Lambsquarters [12, 25]: 35
- Lambsquarters plant response rating [12, 26]: 35
- Plant response rating, Lambsquarters [12, 27]: 70
- Plant response rating (scale of 0 to 100), Waterhemp ([13]; Postemergence, 16 g ai/ha): 10
- Plant response rating (scale of 0 to 100 where 0 is no effect and 100 is complete control), Waterhemp [13, 25]: 10
- Waterhemp plant response rating [13, 26]: 10
- Plant response rating, Waterhemp [13, 27]: 65

SMILES: CCCc1cc(C(=O)NOC(C)C)nn1Cc1cc(C(F)(F)F)nn1C [Compound 203]
- Barnyardgrass plant response rating (0 to 100 scale, 0 is no effect, 100 is complete control) [1, 28]: 80
- Barnyardgrass plant response rating ([1]; preemergence, 500 g ai/ha, visual injury after approx. 10 days, 0 to 100 scale (0 no effect, 100 complete control)): 100
- Pigweed plant response rating (0 to 100 scale) [2, 28]: 100
- Velvetleaf plant response rating (0 to 100 scale) [3, 28]: 30
- Pigweed plant response rating [4, 29]: 90
- Pigweed plant response rating [4, 30]: 100
- Velvetleaf plant response rating [5, 29]: 30
- Velvetleaf plant response rating [5, 30]: 90
- Blackgrass plant response rating [14, 31]: 30
- Blackgrass plant response rating [14, 32]: 50
- Plant response rating, Blackgrass [14, 33]: 85
- Blackgrass plant response rating [14, 34]: 90
- Wheat plant response rating [15, 31]: 40
- Wheat plant response rating [15, 32]: 75
- Plant response rating, Wheat [15, 33]: 90
- Wheat plant response rating [15, 34]: 90
- Foxtail, Giant plant response rating [6, 35]: 60
- Foxtail, Giant plant response rating [6, 36]: 98
- Plant response rating, Foxtail, Giant [6, 37]: 100
- Foxtail, Giant plant response rating [6, 38]: 100
- Johnsongrass plant response rating [7, 35]: 0
- Johnsongrass plant response rating [7, 36]: 0
- Plant response rating, Johnsongrass [7, 37]: 40
- Johnsongrass plant response rating [7, 38]: 55
- Ragweed plant response rating [8, 35]: 75
- Ragweed plant response rating [8, 36]: 80
- Plant response rating, Ragweed [8, 37]: 98
- Ragweed plant response rating [8, 38]: 100
- Soybean plant response rating [9, 35]: 5
- Soybean plant response rating [9, 36]: 5
- Plant response rating, Soybean [9, 37]: 35
- Soybean plant response rating [9, 38]: 55
- Oilseed Rape plant response rating [16, 31]: 50
- Oilseed Rape plant response rating [16, 32]: 100
- Plant response rating, Oilseed Rape [16, 33]: 100
- Oilseed Rape plant response rating [16, 34]: 100
